The text below walks through data of patent US20250263650A1, “FUNGUS AND MICROBIAL AGENT FOR TREATING MERCURY CONTAMINATION, USE THEREOF, MERCURY REMOVAL METHOD, AND METHOD FOR I[…] CAPABLE OF TREATING MERCURY CONTAMINATION” (ZHEJIANG UNIVERSITY, priority 2021, published 2025).

The series relates to Zea mays L. seeds. Kind of series: Tolerance of Zea mays L. to methylmercury and divalent mercury (seed germination in soil). The format is in vivo. The procedure: Methylmercury was added to the soil, where five concentrations of 0 μg/kg, 2.5 μg/kg, 5 μg/kg, 7.5 μg/kg, and 10 μg/kg were set. Divalent mercury was added to the soil, where five concentrations of 0 mg/kg, 20 mg/kg, 30 mg/kg, 40 mg/kg, and 50 mg/kg were set. The soil was placed in a cultivation vessel (with a height of 14 cm and a diameter of 7 cm).
Seed disinfection and cultivation: Zea mays L. seeds were disinfected for 5 min in 1% sodium hypochlorite and then washed three times with sterile water (1 min each time), disinfected for 10 min with 15% H2O2 and then washed three times with sterile water (1 min each time), and then placed in a 2% water agar medium and vernalized overnight at 4° C. Then, the pretreated seeds were sown into the soil, and 10 P. purpureum seeds or 5 Zea mays L. seeds were sown in each vessel.

Regarding `[Hg+2]` [divalent mercury], the “germination rate of the Zea mays L. seeds” value (“germination rate” below) reads like this: (soil with 20 mg/kg divalent mercury) 100%; (soil with 30 mg/kg divalent mercury) 80%; (soil with 40 mg/kg divalent mercury) 60%.

For the compound `[CH3][Hg][Cl]` [methylmercury], the “germination rate” value (soil with 2.5 μg/kg methylmercury) amounted to 100% and the “germination rate” value (soil with 10 μg/kg methylmercury) is recorded as 80%.
